# Measured values reported in patent US20230263757A1, “DISINFECTING WIPE KIT FOR CENTRAL VENOUS ACCESS DEVICES” (SterileCare Inc., priority 2022, published 2023).
# Structures can show the parent of a compound that is named as a salt. Where two headings read alike, the source gives them in different places.
# Columns and labels:
# [1] = tested on: Staphylococcus epidermidis ON170; test: Checkerboard titration, FICI; type: cell-based; details: for concentration in combination: EDTA + ethanol
# Protocol: (§1) A fourth composition and solution included tetrasodium EDTA with ethanol or chlorhexidine HCl. This fourth composition and solution were created using checkerboard titration methods using micro broth dilution in 96-well microtiter plates. The concentrations of antimicrobials used were based on previously determined MIC values. Briefly, 200 μL, of two-fold dilutions of tetrasodium EDTA and ethanol or chlorhexidine HCl were prepared in MH or MH II broth with standardized cell suspension. […] Microtiter plates were incubated at 37° C. for 24 h, and the results were analyzed. Each test was performed in duplicate and included a growth control without adding any antimicrobials.
# [2] = tested on: Stenotrophomonas maltophilia ON17; test: Checkerboard titration, FICI; type: cell-based; details: for concentration in combination: EDTA + ethanol
# Protocol: as §1
# Candida albicans SK4b [3] = test: Checkerboard titration, FICI; type: cell-based; details: for concentration in combination: EDTA + ethanol
# Protocol: as §1
# [4] = tested on: Staphylococcus aureus ON89; test: Checkerboard titration, FICI; type: cell-based; details: for concentration in combination: EDTA + ethanol
# Protocol: as §1
# Escherichia coli ON29 [5] = test: Checkerboard titration, FICI; type: cell-based; details: for concentration in combination: EDTA + ethanol
# Protocol: as §1
# Proteus mirabilis ON153 [6] = test: Checkerboard titration, FICI; type: cell-based; details: for concentration in combination: EDTA + ethanol
# Protocol: as §1
# [7] = tested on: Pseudomonas aeruginosa SK1; test: Checkerboard titration, FICI; type: cell-based; details: for concentration in combination: EDTA + ethanol
# Protocol: as §1
# Serratia marcescens SK2 [8] = test: Checkerboard titration, FICI; type: cell-based; details: for concentration in combination: EDTA + ethanol
# Protocol: as §1
# [9] = tested on: Staphylococcus epidermidis ON170; test: MBC/MFC determination; type: cell-based; details: alone
# Protocol: (§2) An assay was made using a minimum inhibitory concentration (MIC) and minimum bactericidal concentration (MBC) and minimum fungicidal concentration (MFC) determination. The MIC was determined by the micro broth dilution method in 96-well plates. Serial two-fold dilutions of tetrasodium EDTA (from 2% to 0.015%), ethanol (from 50% to 0.1%) and chlorhexidine HCl (from 100 μg/mL to 0.025 μg/mL) were prepared in MH broth with a final volume of 90 μL per well. A 10 μL containing 1×10^5 bacterial cells or 2×10^3 fungal cells were added to each well. The inoculated plates were covered with a lid, sealed with Parafilm, and incubated for 24 h at 37° C. with slight rocking on a tilting platform shaker. After incubation, the optical density at 600 nm (OD 600) of the cultures in each well was measured using an xMark™ Microplate Absorbance Spectrophotometer (Bio-Rad). […] MBCs and MFCs were determined by transferring 100 μL from each well with no apparent growth onto appropriate agar plates, followed by incubation for 24 h at 37° C.
# [10] = tested on: Stenotrophomonas maltophilia ON17; test: MBC/MFC determination; type: cell-based; details: alone
# Protocol: as §2
# Candida albicans SK4b [11] = test: MBC/MFC determination; type: cell-based; details: alone
# Protocol: as §2
# [12] = tested on: Staphylococcus aureus ON89; test: MBC/MFC determination; type: cell-based; details: alone
# Protocol: as §2
# Escherichia coli ON29 [13] = test: MBC/MFC determination; type: cell-based; details: alone
# Protocol: as §2
# Proteus mirabilis ON153 [14] = test: MBC/MFC determination; type: cell-based; details: alone
# Protocol: as §2
# [15] = tested on: Pseudomonas aeruginosa SK1; test: MBC/MFC determination; type: cell-based; details: alone
# Protocol: as §2
# Serratia marcescens SK2 [16] = test: MBC/MFC determination; type: cell-based; details: alone
# Protocol: as §2
# E. coli SK2 = test: MBC/MFC determination; type: cell-based, Escherichia coli; details: alone
# Protocol: as §2
# MRSA ON184 [17] = test: MBC/MFC determination; type: cell-based, S. aureus; details: alone
# Protocol: as §2
# MRSA ON184 [18] = test: MIC, micro broth dilution; type: cell-based, S. aureus; details: alone
# Protocol: as §2
# C. albicans ON47 = test: MIC, micro broth dilution; type: cell-based, Candida albicans; details: alone
# Protocol: as §2
# [19] = tested on: 48-h-old biofilms of bacterial and fungal strains; test: MBEC assay, 24-h exposure; type: cell-based; details: 24 h of treatment
# Protocol: A biofilm cultivation cell composition was provided. This fifth composition was created using an MBEC Assay® biofilm inoculator, consisting of a polystyrene lid with 96 downward-protruding pegs and a corresponding base used to grow biofilms. A standardized inoculum was diluted in an appropriate biofilm growth medium to achieve a viable cell count of 1.5×10^6 CFU/mL of bacterial cells or 5×10^5 CFU/mL of fungal cells. Then, 150 μL of this inoculum was transferred into each appropriate well, and the peg lids were inserted into the microtiter plates. The plates were sealed with Parafilm and were incubated at optimum temperature for 48 h with slight rocking for bacteria and shaking at 200 rpm for fungal strains. After incubation, the peg lid was removed from the base and rinsed twice with sterile phosphate-buffered saline (PBS) for 2 min to remove loosely attached non-sessile cells. Before the antimicrobial challenge, the pegs in column 1 (n=8) were considered the biofilm growth control; these pegs were removed from the lids, placed into 200 μL of recovery medium, and analyzed for starting biofilm cell numbers as described below. […] After the antimicrobial challenge, the pegs were rinsed twice with sterile PBS for 2 min and placed into a new 96-well plate containing 200 μL of recovery medium. The recovery plates were sealed with Parafilm, and biofilm cells were dislodged from the pegs by sonication for 30 min with a Branson 3510 bath sonicator. The biofilm cells in the recovery medium were serially diluted, and a drop dilution assay was performed to enumerate the viable cells. MBEC values were determined as the minimum concentration of antimicrobials that yielded a viable cell count at or lower than the 125 CFU/mL detection limit.
# [20] = tested on: Staphylococcus epidermidis SK9; test: FBEC index, checkerboard on biofilms; type: cell-based; details: for biofilm eradication concentration in combination (FBEC): EDTA + ethanol
# Protocol: In step (4), microtiter plates are incubated at 37° C. for 24 h. then (6), after incubation, the bacterial and fungal cells were dislodged from the pegs into the recovery medium described above.
# Three 10-μL aliquots, for a total of 30 μL from each well of recovery medium, were spotted on MH agar plates and incubated for 24 h at 37° C. […] The FBEC determination is a modification of the FICI.
# S. epidermidis SK9 = test: Checkerboard, FMCI; type: cell-based, Staphylococcus epidermidis; details: for microbicidal concentration in combination: EDTA + ethanol
# Protocol: as §2, §1
Structure (SMILES),concentration in combination [1],concentration in combination [2],concentration in combination (Candida albicans SK4b [3]),concentration in combination [4],concentration in combination (Escherichia coli ON29 [5]),concentration in combination (Proteus mirabilis ON153 [6]),concentration in combination [7],concentration in combination (Serratia marcescens SK2 [8]),MBC/MFC [9],MBC/MFC [10],MBC/MFC (Candida albicans SK4b [11]),MBC/MFC [12],MBC/MFC (Escherichia coli ON29 [13]),MBC/MFC (Proteus mirabilis ON153 [14]),MBC/MFC [15],MBC/MFC (Serratia marcescens SK2 [16]),MBC/MFC (E. coli SK2),MBC/MFC (MRSA ON184 [17]),MIC (MRSA ON184 [18]),concentration alone able to eradicate all established biofilms [19],also measured
"CCO [Ethanol, ethanol]",0.4 % w/v,0.4 % w/v,1.6 % w/v,0.4 % w/v,3.125 % w/v,1.6 % w/v,3.125 % w/v,3.125 % w/v,6.25 % w/v,6.25 % w/v,6.25 % w/v,25 % w/v,25 % w/v,12.5 % w/v,12.5 % w/v,12.5 % w/v,25 % w/v,25 % w/v,6.25 % w/v,5%,MIC (C. albicans ON47): 6.25 % w/v; biofilm eradication concentration in combination (FBEC) [20]: 1.6 % w/v; microbicidal concentration in combination (S. epidermidis SK9): 3.125 % w/v
"O=C([O-])CN(CCN(CC(=O)[O-])CC(=O)[O-])CC(=O)[O-].[Na+].[Na+].[Na+].[Na+] [EDTA, tetrasodium EDTA]",0.015 % w/v,0.031 % w/v,0.25 % w/v,0.015 % w/v,0.25 % w/v,0.5 % w/v,0.031 % w/v,0.5 % w/v,0.5 % w/v,1 % w/v,1 % w/v,1 % w/v,1 % w/v,2 % w/v,1 % w/v,2 % w/v,0.5 % w/v,2 % w/v,0.063 % w/v,4%,EDTA concentration in combination ([1]; EDTA + chlorhexidine HCl): 0.063 % w/v; EDTA concentration in combination ([2]; EDTA + chlorhexidine HCl): 0.015 % w/v; EDTA concentration in combination (Candida albicans SK4b [3]; EDTA + chlorhexidine HCl): 0.063 % w/v; EDTA concentration in combination ([4]; EDTA + chlorhexidine HCl): 0.008 % w/v; EDTA concentration in combination (Escherichia coli ON29 [5]; EDTA + chlorhexidine HCl): 0.008 % w/v; EDTA concentration in combination (Proteus mirabilis ON153 [6]; EDTA + chlorhexidine HCl): 0.063 % w/v; EDTA concentration in combination ([7]; EDTA + chlorhexidine HCl): 0.5 % w/v; EDTA concentration in combination (Serratia marcescens SK2 [8]; EDTA + chlorhexidine HCl): 0.063 % w/v; MIC (C. albicans ON47): 1 % w/v; EDTA biofilm eradication concentration in combination (FBEC) ([20]; EDTA + chlorhexidine HCl): 0.125 % w/v; biofilm eradication concentration in combination (FBEC) [20]: 0.031 % w/v; EDTA microbicidal concentration in combination (S. epidermidis SK9; EDTA + chlorhexidine HCl): 0.008 % w/v; microbicidal concentration in combination (S. epidermidis SK9): 0.031 % w/v
"[H]/N=C(\N/C(=N/[H])NCCCCCCNC(=N)NC(=N)Nc1ccc(Cl)cc1)Nc1ccc(Cl)cc1 [Chlorhexidine HCl, 1,6-bis(4′-chlorophenylbiguanide) hexane]",–,–,–,–,–,–,–,–,0.8 µg/mL,3.125 µg/mL,3.125 µg/mL,0.8 µg/mL,0.8 µg/mL,50 µg/mL,3.125 µg/mL,25 µg/mL,0.8 µg/mL,1.6 µg/mL,–,100 µg/mL,"Chlorhexidine HCl concentration in combination ([1]; EDTA + chlorhexidine HCl): 0.05 µg/mL; Chlorhexidine HCl concentration in combination ([2]; EDTA + chlorhexidine HCl): 0.2 µg/mL; Chlorhexidine HCl concentration in combination (Candida albicans SK4b [3]; EDTA + chlorhexidine HCl): 0.8 µg/mL; Chlorhexidine HCl concentration in combination ([4]; EDTA + chlorhexidine HCl): 0.1 µg/mL; Chlorhexidine HCl concentration in combination (Escherichia coli ON29 [5]; EDTA + chlorhexidine HCl): 0.2 µg/mL; Chlorhexidine HCl concentration in combination (Proteus mirabilis ON153 [6]; EDTA + chlorhexidine HCl): 0.8 µg/mL; Chlorhexidine HCl concentration in combination ([7]; EDTA + chlorhexidine HCl): 0.8 µg/mL; Chlorhexidine HCl concentration in combination (Serratia marcescens SK2 [8]; EDTA + chlorhexidine HCl): 1.5 µg/mL; MIC (MRSA ON184 [18]; Staphylococcus aureus, read-out: MIC): 0.2 µg/mL; MIC (C. albicans ON47; Candida albicans, read-out: MIC): 1.6 µg/mL; Chlorhexidine HCl biofilm eradication concentration in combination (FBEC) ([20]; EDTA + chlorhexidine HCl): 3.125 µg/mL; Chlorhexidine HCl microbicidal concentration in combination (S. epidermidis SK9; EDTA + chlorhexidine HCl): 0.4 µg/mL"
